According to PubChem BioAssay AID330 (DTP/NCI, 2004):
Inconclusive results and toxic doses are left out. Rule for the calls: active = survival T/C of 150% or more; inactive = T/C below 125% in these data.

Tested on: P388 leukemia ip, CD2F1 mice, survival T/C
Experiment: NCI In Vivo Anticancer Drug Screen. Data for tumor model P388 Leukemia (intraperitoneal) in CD2F1 (CDF1) mice
Conditions: endpoint: median survival time, higher = longer survival
Procedure, shortened: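 Mice carrying the transplanted tumor received test compound or vehicle. Survival was recorded in each group, and the value is the treated-group measurement divided by that of the vehicle-treated control group.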

Measured: T/C

CC(N=Cc1ccccc1O)c1ccccc1.[CH-]=C([CH2-])C(C)(C)C.[Pd+2] (stereo not given)
inactive: dose: 6.25 mg/kg/injection, schedule: Q04DX003 (ip), vehicle: Klucel (hydroxypropylcellulose) (HPC) 108 % of control | dose: 12.5 mg/kg/injection, schedule: Q04DX003 (ip), vehicle: Klucel (hydroxypropylcellulose) (HPC) 93 % of control | dose: 25.0 mg/kg/injection, schedule: Q04DX003 (ip), vehicle: Klucel (hydroxypropylcellulose) (HPC) 92 % of control

COC(=O)C1=C(C(=O)OC)[C]([Hg][CH3])(C(C)=O)N=N1 (stereo not given)
inactive: dose: 1.56 mg/kg/injection, schedule: Q01DX009 (ip), vehicle: saline 88 % of control | dose: 3.12 mg/kg/injection, schedule: Q01DX009 (ip), vehicle: saline 88 % of control | dose: 6.25 mg/kg/injection, schedule: Q01DX009 (ip), vehicle: saline 93 % of control | dose: 12.5 mg/kg/injection, schedule: Q01DX009 (ip), vehicle: saline 106 % of control

COc1ccc(COC(=O)Nc2ccccc2F)c(OC)c1OC
inactive: dose: 50.0 mg/kg/injection, schedule: Q01DX005 (ip), vehicle: saline with Tween-80 91 % of control | dose: 100.0 mg/kg/injection, schedule: Q01DX005 (ip), vehicle: saline with Tween-80 101 % of control | dose: 200.0 mg/kg/injection, schedule: Q01DX005 (ip), vehicle: saline with Tween-80 100 % of control
